Counter-ions that a name gives are not always drawn.
Key:
[1] = molecular target: T1, human NCX1 (Homo sapiens, UniProt P32418); assay: NCX1 inhibition, reverse mode (Ca2+ influx into cells), FLIPR Fluo-4 assay; assay type: cell-based; conditions: inhibition of NCX1 in reverse mode (Ca2+ influx into cells); read-out: NCX1rv IC50
T1 construct: expressed in transfected cells
Procedure, shortened: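 Max−min Fluo-4 fluorescence (520 nm, FLIPR, 240 points at 2 s) after 20 µM final gramicidin, which drives Na+ loading and reverse-mode Ca2+ entry, gave % inhibition and IC50. Test compound was preincubated 45 min at 16 °C with Fluo-4-loaded CHO cells stably expressing human NCX1, in pH 7.4 buffer containing 3.5 mM CaCl2 and probenecid.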

[2] = molecular target: T1, human NCX1; assay: NCX1 inhibition, forward mode (Ca2+ efflux out of cells), FLIPR calcium assay; assay type: cell-based; conditions: for IC50: CHO cells stably expressing human NCX1, read-out: NCX1fw IC50; for inhibition at 10 µM: CHO cells stably expressing human NCX1, read-out: Inhibition in % at 10 μM, IC50 value not determined
Excerpt: The sodium/calcium exchanger NCX1 can transport calcium ions and sodium ions through the cell membrane. The transport is an exchange of Ca^2+ and Na^+ in two directions depending on membrane potential and ion gradients. At the first direction, named “forward mode” or “calcium export mode”, Ca^2+ is transported out of the cell and Na^+ is transported into the cell. At the other direction, named “reverse mode” or “calcium import mode”, the transport directions are vice versa. The effect of the compounds of the invention on NCX1 was determined in CHO cells stably expressing human NCX1 (gene symbol SLC8A1; cf. WO 2009/115238). The assay is based on the monitoring of intracellular Ca^2+ concentrations using a calcium-sensitive fluorescence dye which is detected by means of a FLIPR device (Fluorimetric Imaging Plate Reader, Molecular Devices).
The assay is based on the monitoring of intracellular Ca^2+ concentrations using the PBX Calcium Assay Kit from BD (Becton, Dickinson and Company) with calcium indicator dye 51-9000177BKa (BD, 640177). CHO cells expressing NCX1 were loaded with the dye, and after a preincubation period with the test compound, Ionomycin (Calbiochem, 407950) was added. Ionomycin is an ionophor for Ca^2+ ions mediating an increase of intracellular Ca^2+ ions. Consequently, intracellular Ca^2+ ions are exchanged against extracellular Na^+ ions (Ca^2+ efflux, forward mode). The decrease of intracellular Ca^2+ ions was detected by measuring the fluorescence of the calcium indicator dye at a wavelength of 520 nm by a FLIPR device.
Briefly, similarly as for the reverse mode, for the forward mode transport assay 18000 cells per well were seeded into a 96 well microplate (Corning COSTAR 3904) and incubated overnight in culture medium (cf. above). A total volume of 100 μl medium per well was used. For the preparation of the FLIPR assay, the culture medium was removed from the plates and 100 μl of assay buffer (133.8 mM NaCl (Sigma, S5886); 4.7 mM KCl (Sigma, P3911); 1.25 mM MgCl2 (Merck, 1.05833.0250); 3.5 mM CaCl2(Merck, 1.02083.0250); 5 mM glucose (Sigma, G7021); 10 mM Hepes (Sigma, H4034); pH 7.4)) were added to each well in a washing step. Assay buffer was removed, and 100 μl of a solution of the test compound in assay buffer in different concentrations were added into the wells. Further, 100 μl of dye solution (0.09% (v/v) calcium indicator dye, 9.1% (v/v) signal enhancer (from PBX Calcium Assay Kit); in assay buffer) were added into each well. The plates were incubated in the dark at room temperature for 60 min. Meanwhile a 10 μM solution of Ionomycin in assay buffer (additionally containing 0.05% fetal calf serum (cf. above); 4° C.) was prepared and stored in the wells of a 96 well microplate (96 well microplate, polypropylene, U-shape (Greiner Bio-One, 650201)). The fluorescence monitoring was performed at 60 measuring points with measurement intervals of 2 sec. After the fifth measuring point, 50 μl of the Ionomycin solution were added to each well of the assay plate to give a final Ionomycin concentration of 2 μM. For the determination of the IC50 values the minimal fluorescence value was subtracted from the maximal fluorescence value for the fifteenth to fifty-fifth measuring points. The calculation of the IC50 values via the percentage inhibitions of Ca^2+ efflux out of cells (forward mode) effected by the test compound was performed in Biost@t Speed 2.0. “NCX1fw IC50” in Table 2 means the IC50 value for inhibition of NCX1 in forward mode (in μM (micromol/liter)).

Row | SMILES | IC50 [1] | IC50 [2] | inhibition at 10 µM [2]
1 | O=C(NCc1ccncc1)c1cnc(Oc2ccc3c(c2)CCC(c2cccc(F)c2)O3)s1 (stereo not shown) [Example 18, hydrochloride] | 200 nM | 600 nM | –
2 | O=C(NCc1ccnc(Cl)c1)c1cnc(Oc2ccc3c(c2)CCC(c2ccccc2)O3)s1 (stereo not shown) [Example 39, 2-(2-Phenyl-chroman-6-yloxy)-thiazole-5-carboxylic acid (2-chloro-pyridin-4-ylmethyl)-amide] | 300 nM | 1200 nM | –
3 | c1ccc(C2CCc3cc(Oc4ncc(CNCc5ccncc5)s4)ccc3O2)cc1 (stereo not shown) [Example 134, [2-(2-Phenyl-chroman-6-yloxy)-thiazol-5-ylmethyl]-pyridin-4-ylmethyl-amine] | 200 nM | 2600 nM | –
4 | O=C(NCc1ccncc1)c1sc(Oc2ccc3c(c2)CCC(c2ccccc2)O3)nc1Cl (stereo not shown) [Example 177, 4-Chloro-2-(2-phenyl-chroman-6-yloxy)-thiazole-5-carboxylic acid (pyridin-4-ylmethyl)-amide hydrochloride] | 300 nM | 800 nM | –
5 | COC(=O)C(C)(C)NC(=O)c1cnc(Oc2ccc3c(c2)CC[C@@H](c2ccccc2)O3)s1 [Example 182] | 600 nM | – | 8%
6 | Cc1ccccc1C1CCc2cc(Oc3ncc(C(=O)NCCN4CCNC4=O)s3)ccc2O1 (stereo not shown) [Example 216, 2-(2-o-Tolyl-chroman-6-yloxy)-thiazole-5-carboxylic acid [2-(2-oxo-imidazolidin-1-yl)-ethyl]-amide] | 300 nM | 1900 nM | –
7 | O=C(O)C1CN(C(=O)c2cnc(Oc3ccc4c(c3)CC[C@@H](c3ccccc3)O4)s2)CC1C(F)(F)F (stereo partly shown) [Example 243] | 700 nM | – | 19%
8 | O=C(NC1C2CNCC21)c1cnc(Oc2ccc3c(c2)CC[C@@H](c2ccccc2)O3)s1 (stereo partly shown) [Example 255] | 300 nM | 600 nM | –
9 | COC(=O)[C@@H](C)NC(=O)c1cnc(Oc2ccc3c(c2)CCC(c2cccnc2)O3)s1 (stereo partly shown) [Example 275] | 3100 nM | 9900 nM | –
10 | Cc1ccc(F)cc1C1CCc2cc(Oc3ncc(C(=O)NCCN4CCNC4=O)s3)ccc2O1 (stereo not shown) [compound 349] | 200 nM | – | –
11 | CCCNC(=O)c1csc(Oc2ccc3c(c2)CC[C@@H](c2ccccc2)O3)n1 [compound 351] | 110 nM | – | –
12 | O=C(NCc1ccno1)c1csc(Oc2ccc3c(c2)CC[C@@H](c2ccccc2)O3)n1 [compound 353] | 92 nM | – | –
13 | CC(O)CNC(=O)c1cnc(Oc2ccc3c(c2)CCC(c2ccccc2)O3)s1 (stereo not shown) [compound 354] | 160 nM | – | –
14 | O=C(NC1CCCC1O)c1cnc(Oc2ccc3c(c2)CCC(c2ccccc2)O3)s1 (stereo not shown) [compound 355] | 250 nM | – | –
15 | Cc1ccc(F)cc1C1CCc2cc(Oc3ncc(C(=O)N4CC[C@@H](O)C4)s3)ccc2O1 (stereo partly shown) [compound 356] | 540 nM | – | –
16 | Cc1cc2c(cc1Oc1ncc(C(=O)NCc3ccno3)s1)CCC(c1ccccc1C)O2 (stereo not shown) [compound 358] | 830 nM | – | –
17 | CC1Cc2cc(Oc3ncc(C(=O)NCc4ccno4)s3)ccc2OC1c1ccccc1 (stereo not shown) [compound 363] | 1900 nM | – | –
18 | CC1Cc2cc(Oc3ncc(C(=O)NCCO)s3)ccc2OC1c1ccccc1 (stereo not shown) [compound 364] | 960 nM | – | –

The remaining compounds from weak to strong by IC50 [1], led by results:

Row | IC50 [1] | IC50 [2] | inhibition at 10 µM [2] | SMILES
19 | 9600 nM | – | – | COc1cccc(C2CCc3cc(Oc4ncc(C(=O)NCc5ccno5)s4)ccc3O2)c1F (stereo not shown) [compound 361]
20 | 9200 nM | – | 20% | Cc1nn(C)c(C)c1S(=O)(=O)NCc1cnc(Oc2ccc3c(c2)CCC(c2ccccc2)O3)s1 (stereo not shown) [Example 125, 1,3,5-Trimethyl-1H-pyrazole-4-sulfonic acid [2-(2-phenyl-chroman-6-yloxy)-thiazol-5-ylmethyl]-amide]
21 | 1800 nM | – | – | COc1cccc(C2CCc3cc(Oc4ncc(C(=O)NCCO)s4)ccc3O2)c1F (stereo not shown) [compound 360]
22 | 1500 nM | – | – | CCn1nccc1CNC(=O)c1cnc(Oc2cc3c(cc2C)OC(c2ccccc2C)CC3)s1 (stereo not shown) [compound 359]
23 | 1500 nM | – | – | CCn1nccc1CNC(=O)c1cnc(Oc2ccc3c(c2)CCC(c2cccc(OC)c2F)O3)s1 (stereo not shown) [compound 362]
24 | 600 nM | – | 27% | O=C(NCc1ccncn1)c1cnc(Oc2ccc3c(c2)CCC(c2ccccc2)O3)s1 (stereo not shown) [Example 32]
25 | 600 nM | 8300 nM | – | O=C(NCc1ccno1)c1cnc(Oc2ccc3c(c2)CCC(c2cccnc2)O3)s1 (stereo not shown) [Example 58, hydrochloride]
26 | 600 nM | – | 17% | CCOC(=O)[C@@H]1CCCC[C@@H]1NC(=O)c1cnc(Oc2ccc3c(c2)CC[C@@H](c2ccccc2)O3)s1 [Example 189]
27 | 600 nM | – | – | Cc1cc2c(cc1Oc1ncc(C(=O)NCCO)s1)CCC(c1ccccc1C)O2 (stereo not shown) [compound 357]
28 | 550 nM | – | – | CCn1nccc1CNC(=O)c1cnc(Oc2ccc3c(c2)CCC(c2cccc(F)c2OC)O3)s1 (stereo not shown) [compound 365]
29 | 500 nM | 4500 nM | – | O=C(c1cnc(Oc2ccc3c(c2)CC[C@@H](c2ccccc2)O3)s1)N1CCOCC1 [Example 214]
30 | 400 nM | 1500 nM | – | CCCNC(=O)c1cnc(Oc2ccc3c(c2)CCC(c2ccccc2)O3)s1 (stereo not shown) [Example 321, 2-(2-Phenyl-chroman-6-yloxy)-thiazole-5-carboxylic acid propylamide]
31 | 300 nM | 1900 nM | – | O=C(NCc1nnc2n1CCC2)c1cnc(Oc2ccc3c(c2)CCC(c2ccccc2)O3)s1 (stereo not shown) [Example 2, 2-(2-Phenyl-chroman-6-yloxy)-thiazole-5-carboxylic acid (6,7-dihydro-5H-pyrrolo[2,1-c][1,2,4]triazol-3-ylmethyl)-amide]
32 | 300 nM | 900 nM | – | CC(NC(=O)c1cnc(Oc2ccc3c(c2)CCC(c2cccc(F)c2)O3)s1)c1ccncc1 (stereo not shown) [Example 13, hydrochloride]
33 | 300 nM | 2200 nM | – | Cc1c(CNC(=O)c2cnc(Oc3ccc4c(c3)CCC(c3ccccc3)O4)s2)cnn1C (stereo not shown) [Example 14, 2-(2-Phenyl-chroman-6-yloxy)-thiazole-5-carboxylic acid (1,5-dimethyl-1H-pyrazol-4-ylmethyl)-amide]
34 | 300 nM | – | 46% | c1ccc(C2CCc3cc(Oc4ncc(CNCc5cn6ccsc6n5)s4)ccc3O2)cc1 (stereo not shown) [Example 158]
35 | 300 nM | 1600 nM | – | O=C(NC(CCO)C1CC1)c1cnc(Oc2ccc3c(c2)CC[C@@H](c2ccccc2)O3)s1 (stereo partly shown) [Example 206]
36 | 270 nM | – | – | COc1c(F)cccc1C1CCc2cc(Oc3ncc(C(=O)NCCO)s3)ccc2O1 (stereo not shown) [compound 367]
37 | 200 nM | 1200 nM | – | O=C(NCc1nnc2n1CCC2)c1cnc(Oc2ccc3c(c2)CCC(c2cccc(F)c2)O3)s1 (stereo not shown) [Example 20, hydrochloride]
38 | 200 nM | 3100 nM | – | c1ccc(C2CCc3cc(Oc4ncc(CNC5CC5)s4)ccc3O2)cc1 (stereo not shown) [Example 103]
39 | 180 nM | – | – | COc1c(F)cccc1C1CCc2cc(Oc3ncc(C(=O)NCc4ccno4)s3)ccc2O1 (stereo not shown) [compound 366]
40 | 120 nM | – | – | O=C(NCCO)c1csc(Oc2ccc3c(c2)CC[C@@H](c2ccccc2)O3)n1 [compound 350]
41 | 100 nM | 200 nM | – | Cc1nc(Oc2ccc3c(c2)CCC(c2ccccc2)O3)sc1C(=O)NCc1ccncc1 (stereo not shown) [Example 59, hydrochloride]

— US20140243292A1, “SUBSITUTED 2-(CHROMAN-6-YLOXYL)-THIAZOLES AND THEIR USE AS PHARMACEUTICALS” (Sanofi, priority 2011, published 2014)
